Reference: patent US9943529B2, “Methods for reducing cellular proliferation and treating certain diseases” (BRIGHAM YOUNG UNIVERSITY, priority 2013, dated 2018)

Columns and labels:
SR = assay: NCI screen antiproliferative activity, sulforhodamine B, Leukemia panel; format: cell-based, human; conditions: 48 hours, five 10-fold dilutions starting from 100 μM
SW-620 = assay: NCI screen antiproliferative activity, sulforhodamine B, Colon Cancer panel; format: cell-based, human; conditions: 48 hours, five 10-fold dilutions starting from 100 μM
MALME-3M = assay: NCI screen antiproliferative activity, sulforhodamine B, Melanoma panel; format: cell-based, human; conditions: 48 hours, five 10-fold dilutions starting from 100 μM
EKVX = conditions: 48 hours, five 10-fold dilutions starting from 100 μM
HOP-62 = conditions: 48 hours, five 10-fold dilutions starting from 100 μM
HOP-92 = conditions: 48 hours, five 10-fold dilutions starting from 100 μM
NCI-H226 [1] = conditions: 48 hours, five 10-fold dilutions starting from 100 μM
NCI-H322M [2] = conditions: 48 hours, five 10-fold dilutions starting from 100 μM
HT29 = conditions: 48 hours, five 10-fold dilutions starting from 100 μM
SF-268 = conditions: 48 hours, five 10-fold dilutions starting from 100 μM
SF-295 [3] = conditions: 48 hours, five 10-fold dilutions starting from 100 μM
U251 [4] = conditions: 48 hours, five 10-fold dilutions starting from 100 μM
SK-MEL-2 = conditions: 48 hours, five 10-fold dilutions starting from 100 μM
SK-MEL-28 = conditions: 48 hours, five 10-fold dilutions starting from 100 μM
UACC-257 = conditions: 48 hours, five 10-fold dilutions starting from 100 μM
OVCAR-4 [5] = conditions: 48 hours, five 10-fold dilutions starting from 100 μM
SK-OV-3 = conditions: 48 hours, five 10-fold dilutions starting from 100 μM
CAKI-1 = conditions: 48 hours, five 10-fold dilutions starting from 100 μM
RXF 393 [6] = conditions: 48 hours, five 10-fold dilutions starting from 100 μM
PC-3 = conditions: 48 hours, five 10-fold dilutions starting from 100 μM
DU-145 [7] = conditions: 48 hours, five 10-fold dilutions starting from 100 μM
MCF7 = conditions: 48 hours, five 10-fold dilutions starting from 100 μM
NCI-ADR-RES = conditions: 48 hours, five 10-fold dilutions starting from 100 μM
T-47D = conditions: 48 hours, five 10-fold dilutions starting from 100 μM
A549/ATCC = assay: cells; conditions: Homo sapiens, A549, 48 h
NCI-H226 [8] = assay: cells; conditions: Homo sapiens, NCI-H226, 48 h
NCI-H322M [9] = assay: cells; conditions: Homo sapiens, 48 h
HCC-2998 = assay: cells; conditions: Homo sapiens, HCC 2998, 48 h
HCT-15 = assay: cells; conditions: Homo sapiens, HCT-15, 48 h
SF-295 [10] = assay: cells; conditions: Homo sapiens, SF-295, 48 h
SF-539 = assay: cells; conditions: Homo sapiens, SF-539, 48 h
U251 [11] = assay: cells; conditions: Homo sapiens, U-251, 48 h
M14 = assay: cells; conditions: Homo sapiens, M14, 48 h
IGROV1 = assay: cells; conditions: Homo sapiens, IGROV-1, 48 h
OVCAR-3 = assay: cells; conditions: Homo sapiens, OVCAR-3, 48 h
OVCAR-4 [12] = assay: cells; conditions: Homo sapiens, OVCAR-4, 48 h
OVCAR-8 = assay: cells; conditions: Homo sapiens, OVCAR-8, 48 h
786-0 = assay: cells; conditions: Homo sapiens, 786-0, 48 h
RXF 393 [13] = assay: cells; conditions: Homo sapiens, RXF 393, 48 h
TK-10 = assay: cells; conditions: Homo sapiens, TK-10, 48 h
UO-31 = assay: cells; conditions: Homo sapiens, UO-31, 48 h
DU-145 [14] = assay: cells; conditions: Homo sapiens, DU-145, 48 h
MDA-MB-231/ATCC = assay: cells; conditions: Homo sapiens, MDA-MB-231, 48 h
MDA-MB-435 = assay: cells; conditions: Homo sapiens, MDA-MB-435, 48 h

## CCCCCCCCNCCC[C@@H](C)[C@H]1CC[C@H]2[C@@H]3[C@H](OCCCN)C[C@@H]4C[C@H](OCCCN)CC[C@]4(C)[C@H]3C[C@H](OCCCN)[C@]12C [CSA-13]
SR
  TGI: 2.29 µM
SR; Homo sapiens
  GI50: 0.272 µM
SW-620
  TGI: 2.67 µM
SW-620; Homo sapiens
  GI50: 1.16 µM
MALME-3M
  TGI: 3.88 µM
MALME-3M; Homo sapiens
  GI50: 1.76 µM
EKVX
  TGI: 3.38 µM
HOP-62
  TGI: 2.96 µM
HOP-92
  TGI: 21.2 µM
NCI-H226 [1]
  TGI: 12.8 µM
NCI-H322M [2]
  TGI: 9.31 µM
HT29
  TGI: 5.31 µM
SF-268
  TGI: 3.70 µM
SF-295 [3]
  TGI: 2.66 µM
U251 [4]
  TGI: 3.05 µM
SK-MEL-2
  TGI: >100 µM
SK-MEL-28
  TGI: 1.27 µM
UACC-257
  TGI: 9.00 µM
OVCAR-4 [5]
  TGI: 25.2 µM
SK-OV-3
  TGI: 16.3 µM
CAKI-1
  TGI: 10.6 µM
RXF 393 [6]
  TGI: 15.6 µM
PC-3
  TGI: >100 µM
DU-145 [7]
  TGI: 2.35 µM
MCF7
  TGI: 3.09 µM
NCI-ADR-RES
  TGI: 5.33 µM
T-47D
  TGI: 7.13 µM
A549/ATCC
  GI50: 2.01 µM
A549/ATCC; read-out: LC50
  CC50: 45.9 µM
NCI-H226 [8]
  GI50: 2.22 µM
NCI-H226 [8]; read-out: LC50
  CC50: 66.8 µM
NCI-H322M [9]
  GI50: 1.36 µM
NCI-H322M [9]; read-out: LC50
  CC50: > 100 µM
HCC-2998
  GI50: 1.51 µM
HCC-2998; read-out: LC50
  CC50: 13.3 µM
HCT-15
  GI50: 2.63 µM
HCT-15; read-out: LC50
  CC50: 63.9 µM
SF-295 [10]
  GI50: 0.496 µM
SF-295 [10]; read-out: LC50
  CC50: 24 µM
SF-539
  GI50: 0.318 µM
SF-539; read-out: LC50
  CC50: 4.89 µM
U251 [11]
  GI50: 1.37 µM
U251 [11]; read-out: LC50
  CC50: 6.81 µM
M14
  GI50: 1.18 µM
M14; read-out: LC50
  CC50: 12.6 µM
IGROV1
  GI50: 1.44 µM
IGROV1; read-out: LC50
  CC50: 8.67 µM
OVCAR-3
  GI50: 2.24 µM
OVCAR-3; read-out: LC50
  CC50: 88 µM
OVCAR-4 [12]
  GI50: 5.51 µM
OVCAR-4 [12]; read-out: LC50
  CC50: 83 µM
OVCAR-8
  GI50: 1.64 µM
OVCAR-8; read-out: LC50
  CC50: 9.82 µM
786-0
  GI50: 0.837 µM
786-0; read-out: LC50
  CC50: 5.4 µM
RXF 393 [13]
  GI50: 1.54 µM
RXF 393 [13]; read-out: LC50
  CC50: > 100 µM
TK-10
  GI50: 0.974 µM
TK-10; read-out: LC50
  CC50: > 100 µM
UO-31
  GI50: 1.49 µM
UO-31; read-out: LC50
  CC50: > 100 µM
DU-145 [14]
  GI50: 1.14 µM
DU-145 [14]; read-out: LC50
  CC50: 4.85 µM
MDA-MB-231/ATCC
  GI50: 0.422 µM
MDA-MB-231/ATCC; read-out: LC50
  CC50: > 100 µM
MDA-MB-435
  GI50: 0.318 µM
MDA-MB-435; read-out: LC50
  CC50: 5.68 µM
